Measured values published in patent US11667649B2, “Heteroaromatic macrocyclic ether chemotherapeutic agents” (Nuvalent, Inc., priority 2020, dated 2023).

Tested on: TPM3-NTRK1-wt IC50 / primary target (e.g. CD74-ROS1-wt) IC50, Ba/F3 cells
Assay: Cell assay TRKA selectivity (TRKA potency divided by primary target potency)
Format: cell-based
Conditions: for TPM3-NTRK1-wt/CD74-ROS1-G2032R: TRKA selectivity ratio: TPM3-NTRK1-wt IC50 / CD74-ROS1-G2032R IC50, Ba/F3 cells; for TPM3-NTRK1-wt/CD74-ROS1-wt: TRKA selectivity ratio: TPM3-NTRK1-wt IC50 / CD74-ROS1-wt IC50, Ba/F3 cells; for TPM3-NTRK1-wt/EML4-ALK-L1196M-G1202R: TRKA selectivity ratio: TPM3-NTRK1-wt IC50 / EML4-ALK-L1196M-G1202R IC50, Ba/F3 cells; for TPM3-NTRK1-wt/EML4-ALK-wt: TRKA selectivity ratio: TPM3-NTRK1-wt IC50 / EML4-ALK-wt IC50, Ba/F3 cells
In short: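 IL-3-independent Ba/F3 lines stably expressing TPM3-TRKA or the primary fusion (e.g. CD74-ROS1 wt) were exposed to 3-fold compound dilutions for 72 h. Viability was read by CellTiter-Glo luminescence, with IC50 from four-parameter logistic fit. Selectivity is TPM3-NTRK1 IC50 divided by primary-target IC50, binned A (>30-fold) to D (<1).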

Q: With `CCn1ncc2c1-c1cnc(N)c(c1)OCc1cc(F)ccc1-n1ncc(F)c1C2` [Example 48, 3-ethyl-9,16-difluoro-20-oxa-3,4,11,12,23-pentaazapentacyclo[19.3.1.0^2,^6.0^8,^12.0^13,^18]pentacosa-1(24),2(6),4,8,10,13,15,17,21(25),22-decaen-22-amine] as the compound, how does the TPM3-NTRK1-wt/CD74-ROS1-G2032R read?
A: A (bin A for very high selectivity, ratio>30-fold)

Q: What about the TPM3-NTRK1-wt/CD74-ROS1-wt of the same compound?
A: A (bin A for very high selectivity, ratio>30-fold)

Q: And the TPM3-NTRK1-wt/EML4-ALK-L1196M-G1202R?
A: B (bin B for high selectivity, ratio>10-fold)

Q: And the TPM3-NTRK1-wt/EML4-ALK-wt?
A: A (bin A for very high selectivity, ratio>30-fold)

Q: Which results are given for `Cc1nc2c(s1)Cc1c(C)nn(CC3CC3)c1-c1cnc(N)c(c1)O[C@H](C)c1cc(F)ccc1-2` [Example 134, (19R)-3-(cyclopropylmethyl)-16-fluoro-5,10,19-trimethyl-20-oxa-9-thia-3,4,11,23-tetraazapentacyclo[19.3.1.0^2,^6.0^8,^12.0^13,^18]pentacosa-1(24),2(6),4,8(12),10,13,15,17,21(25),22-decaen-22-amine]?
A: TPM3-NTRK1-wt/CD74-ROS1-G2032R: A (bin A for very high selectivity, ratio>30-fold); TPM3-NTRK1-wt/CD74-ROS1-wt: A (bin A for very high selectivity, ratio>30-fold); TPM3-NTRK1-wt/EML4-ALK-L1196M-G1202R: A (bin A for very high selectivity, ratio>30-fold); TPM3-NTRK1-wt/EML4-ALK-wt: A (bin A for very high selectivity, ratio>30-fold)

Q: `C[C@H]1Oc2cc(cnc2N)-c2c(c(Cl)nn2CC2CC2)Cc2cn(C)nc2-c2ccc(F)cc21` [Example 133, (19R)-5-chloro-3-(cyclopropylmethyl)-16-fluoro-10,19-dimethyl-20-oxa-3,4,10,11,23-pentaazapentacyclo[19.3.1.0^2,^6.0^8,^12.0^13,^18]pentacosa-1(24),2(6),4,8,11,13,15,17,21(25),22-decaen-22-amine] was tested. Which TPM3-NTRK1-wt/CD74-ROS1-G2032R did it give?
A: A (bin A for very high selectivity, ratio>30-fold)

Q: And the TPM3-NTRK1-wt/CD74-ROS1-wt?
A: A (bin A for very high selectivity, ratio>30-fold)

Q: And the TPM3-NTRK1-wt/EML4-ALK-L1196M-G1202R?
A: A (bin A for very high selectivity, ratio>30-fold)

Q: What about the TPM3-NTRK1-wt/EML4-ALK-wt of the same compound?
A: A (bin A for very high selectivity, ratio>30-fold)

Q: Which results are given for `Cc1nc2c(s1)Cn1cnc(C#N)c1-c1cnc(N)c(c1)O[C@H](C)c1cc(F)ccc1-2` [Example 65, (19R)-22-amino-16-fluoro-10,19-dimethyl-20-oxa-9-thia-4,6,11,23-tetraazapentacyclo[19.3.1.0^2,^6.0^8,^12.0^13,^18]pentacosa-1(24),2,4,8(12),10,13(18),14,16,21(25),22-decaene-3-carbonitrile]?
A: TPM3-NTRK1-wt/CD74-ROS1-G2032R: A (bin A for very high selectivity, ratio>30-fold); TPM3-NTRK1-wt/CD74-ROS1-wt: A (bin A for very high selectivity, ratio>30-fold); TPM3-NTRK1-wt/EML4-ALK-L1196M-G1202R: B (bin B for high selectivity, ratio>10-fold); TPM3-NTRK1-wt/EML4-ALK-wt: A (bin A for very high selectivity, ratio>30-fold)

Q: Which results are given for `CCn1ncc2c1-c1cnc(N)c(c1)O[C@H](C)c1cc(F)ccc1-c1nocc1C2` [Example 99, (19R)-3-ethyl-16-fluoro-19-methyl-10,20-dioxa-3,4,11,23-tetraazapentacyclo[19.3.1.0^2,^6.0^8,^12.0^13,^18]pentacosa-1(24),2(6),4,8,11,13,15,17,21(25),22-decaen-22-amine]?
A: TPM3-NTRK1-wt/CD74-ROS1-G2032R: A (bin A for very high selectivity, ratio>30-fold); TPM3-NTRK1-wt/CD74-ROS1-wt: A (bin A for very high selectivity, ratio>30-fold); TPM3-NTRK1-wt/EML4-ALK-L1196M-G1202R: C (bin C for moderate selectivity, ratio≥1); TPM3-NTRK1-wt/EML4-ALK-wt: B (bin B for high selectivity, ratio>10-fold)

Q: How did the TPM3-NTRK1-wt/CD74-ROS1-G2032R turn out when `C[C@H]1Oc2cc(cnc2N)-c2c(nnn2CC2CC2)Cc2cn(C)nc2-c2ccc(F)cc21` [Example 29, (19R)-3-(cyclopropylmethyl)-16-fluoro-10,19-dimethyl-20-oxa-3,4,5,10,11,23-hexaazapentacyclo[19.3.1.0^2,^6.0^8,^12.0^13,^18]pentacosa-1(24),2(6),4,8,11,13,15,17,21(25),22-decaen-22-amine] was run?
A: A (bin A for very high selectivity, ratio>30-fold)

Q: What about the TPM3-NTRK1-wt/CD74-ROS1-wt of the same compound?
A: A (bin A for very high selectivity, ratio>30-fold)

Q: What about the TPM3-NTRK1-wt/EML4-ALK-L1196M-G1202R of the same compound?
A: A (bin A for very high selectivity, ratio>30-fold)

Q: And the TPM3-NTRK1-wt/EML4-ALK-wt?
A: A (bin A for very high selectivity, ratio>30-fold)

Q: `CCc1noc2c1-c1cnc(N)c(c1)OCc1cc(F)ccc1-c1nn(C)cc1C2` [Example 30, 3-ethyl-16-fluoro-10-methyl-5,20-dioxa-4,10,11,23-tetraazapentacyclo[19.3.1.0^2,^6.0^8,^12.0^13,^18]pentacosa-1(24),2(6),3,8,11,13,15,17,21(25),22-decaen-22-amine] was tested. Which TPM3-NTRK1-wt/CD74-ROS1-G2032R did it give?
A: A (bin A for very high selectivity, ratio>30-fold)

Q: And the TPM3-NTRK1-wt/CD74-ROS1-wt?
A: A (bin A for very high selectivity, ratio>30-fold)

Q: What about the TPM3-NTRK1-wt/EML4-ALK-L1196M-G1202R of the same compound?
A: C (bin C for moderate selectivity, ratio≥1)

Q: And the TPM3-NTRK1-wt/EML4-ALK-wt?
A: A (bin A for very high selectivity, ratio>30-fold)

Q: Which TPM3-NTRK1-wt/CD74-ROS1-G2032R does the source give for `Cc1nn(CC2CC2)c2c1Cc1cccnc1-c1ccc(F)cc1[C@@H](C)Oc1cc-2cnc1N` [Example 135, (20R)-3-(cyclopropylmethyl)-17-fluoro-5,20-dimethyl-21-oxa-3,4,12,24-tetraazapentacyclo[20.3.1.0^2,^6.0^8,^13.0^14,^19]hexacosa-1(25),2(6),4,8(13),9,11,14,16,18,22(26),23-undecaen-23-amine] here?
A: A (bin A for very high selectivity, ratio>30-fold)

Q: What about the TPM3-NTRK1-wt/CD74-ROS1-wt of the same compound?
A: A (bin A for very high selectivity, ratio>30-fold)

Q: What about the TPM3-NTRK1-wt/EML4-ALK-L1196M-G1202R of the same compound?
A: A (bin A for very high selectivity, ratio>30-fold)

Q: What about the TPM3-NTRK1-wt/EML4-ALK-wt of the same compound?
A: A (bin A for very high selectivity, ratio>30-fold)

Q: For `CCn1nnc2c1-c1cnc(N)c(c1)O[C@H](C)c1cc(F)ccc1-n1nc(C(F)(F)F)cc1C2` [Example 107, (19R)-3-ethyl-16-fluoro-19-methyl-10-(trifluoromethyl)-20-oxa-3,4,5,11,12,23-hexaazapentacyclo[19.3.1.0^2,^6.0^8,^12.0^13,^18]pentacosa-1(24),2(6),4,8,10,13,15,17,21(25),22-decaen-22-amine], which TPM3-NTRK1-wt/CD74-ROS1-G2032R is on record?
A: A (bin A for very high selectivity, ratio>30-fold)

Q: And the TPM3-NTRK1-wt/CD74-ROS1-wt?
A: A (bin A for very high selectivity, ratio>30-fold)

Q: And the TPM3-NTRK1-wt/EML4-ALK-L1196M-G1202R?
A: C (bin C for moderate selectivity, ratio≥1)

Q: And the TPM3-NTRK1-wt/EML4-ALK-wt?
A: C (bin C for moderate selectivity, ratio≥1)

Q: Which results are given for `CCn1ncc2c1-c1cnc(N)c(c1)OC(C)c1cc(F)ccc1-c1ncncc1C2` (centres unmarked) [Example 42, 3-ethyl-17-fluoro-20-methyl-21-oxa-3,4,10,12,24-pentaazapentacyclo[20.3.1.0^2,^6.0^8,^13.0^14,^19]hexacosa-1(25),2(6),4,8(13),9,11,14,16,18,22(26),23-undecaen-23-amine]?
A: TPM3-NTRK1-wt/CD74-ROS1-G2032R: A (bin A for very high selectivity, ratio>30-fold); TPM3-NTRK1-wt/CD74-ROS1-wt: A (bin A for very high selectivity, ratio>30-fold); TPM3-NTRK1-wt/EML4-ALK-L1196M-G1202R: B (bin B for high selectivity, ratio>10-fold); TPM3-NTRK1-wt/EML4-ALK-wt: A (bin A for very high selectivity, ratio>30-fold)

Q: Which results are given for `C[C@H]1Oc2cc(cnc2N)-c2c(cnn2CC2CC2)Cc2cc(C(F)F)nn2-c2ccc(F)cc21` [Example 130, (19R)-3-(cyclopropylmethyl)-10-(difluoromethyl)-16-fluoro-19-methyl-20-oxa-3,4,11,12,23-pentaazapentacyclo[19.3.1.0^2,^6.0^8,^12.0^13,^18]pentacosa-1(24),2(6),4,8,10,13,15,17,21(25),22-decaen-22-amine]?
A: TPM3-NTRK1-wt/CD74-ROS1-G2032R: A (bin A for very high selectivity, ratio>30-fold); TPM3-NTRK1-wt/CD74-ROS1-wt: A (bin A for very high selectivity, ratio>30-fold); TPM3-NTRK1-wt/EML4-ALK-L1196M-G1202R: B (bin B for high selectivity, ratio>10-fold); TPM3-NTRK1-wt/EML4-ALK-wt: A (bin A for very high selectivity, ratio>30-fold)

Q: How did the TPM3-NTRK1-wt/CD74-ROS1-G2032R turn out when `Cc1nc(C#N)c2n1Cc1cccnc1-c1ccc(F)cc1[C@@H](C)Oc1cc-2cnc1N` [Example 18, (20R)-23-amino-17-fluoro-5,20-dimethyl-21-oxa-4,6,12,24-tetraazapentacyclo[20.3.1.0^2,^6.0^8,^13.0^14,^19]hexacosa-1(25),2,4,8(13),9,11,14,16,18,22(26),23-undecaene-3-carbonitrile] was run?
A: A (bin A for very high selectivity, ratio>30-fold)

Q: And the TPM3-NTRK1-wt/CD74-ROS1-wt?
A: A (bin A for very high selectivity, ratio>30-fold)

Q: What about the TPM3-NTRK1-wt/EML4-ALK-L1196M-G1202R of the same compound?
A: A (bin A for very high selectivity, ratio>30-fold)

Q: What about the TPM3-NTRK1-wt/EML4-ALK-wt of the same compound?
A: A (bin A for very high selectivity, ratio>30-fold)

Q: With `CCn1ncc2c1-c1cnc(N)c(c1)OCc1cc(F)ccc1-n1nc(C)cc1C2` [Example 69, 3-ethyl-16-fluoro-10-methyl-20-oxa-3,4,11,12,23-pentaazapentacyclo[19.3.1.0^2,^6.0^8,^12.0^13,^18]pentacosa-1(24),2(6),4,8,10,13,15,17,21(25),22-decaen-22-amine] as the compound, how does the TPM3-NTRK1-wt/CD74-ROS1-G2032R read?
A: A (bin A for very high selectivity, ratio>30-fold)

Q: What about the TPM3-NTRK1-wt/CD74-ROS1-wt of the same compound?
A: A (bin A for very high selectivity, ratio>30-fold)

Q: What about the TPM3-NTRK1-wt/EML4-ALK-L1196M-G1202R of the same compound?
A: B (bin B for high selectivity, ratio>10-fold)

Q: And the TPM3-NTRK1-wt/EML4-ALK-wt?
A: A (bin A for very high selectivity, ratio>30-fold)

Q: With `CC(C)Cn1ncc2c1-c1cnc(N)c(c1)O[C@H](C)c1cc(F)ccc1-c1nn(C)cc1C2` [Example 154, (19R)-16-fluoro-10,19-dimethyl-3-(2-methylpropyl)-20-oxa-3,4,10,11,23-pentaazapentacyclo[19.3.1.0^2,^6.0^8,^12.0^13,^18]pentacosa-1(24),2(6),4,8,11,13,15,17,21(25),22-decaen-22-amine] as the compound, how does the TPM3-NTRK1-wt/CD74-ROS1-G2032R read?
A: A (bin A for very high selectivity, ratio>30-fold)

Q: What about the TPM3-NTRK1-wt/CD74-ROS1-wt of the same compound?
A: A (bin A for very high selectivity, ratio>30-fold)

Q: What about the TPM3-NTRK1-wt/EML4-ALK-L1196M-G1202R of the same compound?
A: B (bin B for high selectivity, ratio>10-fold)

Q: And the TPM3-NTRK1-wt/EML4-ALK-wt?
A: A (bin A for very high selectivity, ratio>30-fold)
